Data as given in US20060159639A1, “Pseudo body odor composition and perfume composition for inhibiting body odor” (priority 2003, published 2006).
Read-outs that look alike come from different tables or passages of the source.

Test: Suppression test of Experimental Example 1: masking and harmonizing effect in a cup, four expert panelists;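 as to harmonizing: score 1 means in harmony 0 indefinite and −1 not in harmony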
Procedure: In the present invention, the selection of the above component (I), component (II) and component (III) was carried out as follows. That is, one of the pseudo body odor compositions mentioned above and a target fragrance component were mixed and left at room temperature for 30 minutes. Thereafter, evaluations of the masking and harmonizing effects to the acid odor were carried out by four expert panelists.
After 30 minutes, a hole of about 1 cm in diameter was formed in the aluminum foil and the investigations of masking effect and the harmonizing effect were carried out according to following evaluation criteria by four expert panelists.
3: Excellent in the masking.
2: Substantially excellent in the masking.
1: Slightly sensible of the body odor (sweat odor and armpit odor).
0: Sensible of the body odor (sweat odor and armpit odor) (insufficient in the masking)

[1] = 200 μl pseudo body odor composition of Example 4 and 10 μl perfume on filter papers in sealed about 500 ml cup, after 30 minutes, four expert panelists, scale 0-3
[2] = 200 μl pseudo body odor composition of Example 4 and 10 μl perfume on filter papers in sealed about 500 ml cup, after 30 minutes, four expert panelists, scale −1 to 1

Compound | Masking [1] | Harmonizing [2] | Harmonizing | Masking
CC(=O)OC/C=C(\C)CCC=C(C)C [Geranyl acetate] | 1 | −1 | – | –
CC(=O)OC1CCCCC1C(C)(C)C (stereo not drawn) [2-tert-Butylcyclohexyl acetate] | 2 | 1 | – | –
CC(C)(C)C1CCC(O)CC1 (stereo not drawn) [p-tert-Butylcyclohexanol] | 1.5 points | 0 | – | –
CCOC(=O)CC(C)=O [Ethyl acetoacetate] | 3 | 1 | – | –
CC/C=C\CCOC(=O)c1ccccc1O [cis-3-Hexenyl salicylate] | 2 | 1 | – | –
C/C=C\C(=O)C1C(C)=CCCC1(C)C (stereo not drawn) [α-Damascone] | 2 | 0 | – | –
C=CC(C)CCCC(C)(C)O (stereo not drawn) [Dihydromyrcenol] | 1.5 points | −1 | – | –
CCCCCCCC=O [Octanal] | 3 | 1 | – | –
CCOC(=O)C12CCCC1C1CCC2C1 (stereo not drawn) [Fluitate, ethyl tricyclo[5.2.1.0^2,6]decan-2-yl carboxylate] | 1.5 points | −1 | – | –
C=CCCC(=O)/C=C/C1C(C)=CCCC1(C)C (stereo not drawn) [Allylionone] | 2.5 points | 0 | – | –
CCCCCCC(C=O)=Cc1ccccc1 [α-Hexyl cinnamic aldehyde] | – | −1 | – | –
COC(=O)c1ccccc1 [Methyl benzoate] | 3 | 1 | – | –
CC(C)(O)CCCC1=CCC(C=O)CC1 (stereo not drawn) [Kovanol, 4(3)-(4-hydroxy-4-methylpentyl)-3-cyclohexene-1-carboxy aldehyde] | 1 | 0 | – | –
c1ccc2[nH]ccc2c1 [Indole] | 1.5 points | −1 | – | –
CC(=O)/C=C/C1=C(C)CCCC1(C)C [β-Ionone] | 1.5 points | −1 | – | –
Cc1cccc(CC(C)(C)CO)c1 [2,2-Dimethyl-3-(3-methylphenyl)propanol] | 0.5 points | −1 | – | –
CCCCCCCCCCC=CC#N [Tridecene-2-nitrile] | 1.5 points | 0 | – | –
CC(CO)c1ccccc1 (stereo not drawn) [2-Phenyl propanol] | 1 | −1 | – | –
CC(C)=CCCC(C)CCCC(C)C=O (stereo not drawn) [2,6,10-Trimethyl-9-undecenal] | 1 | −1 | – | –
CC(=O)OCCC(C)CCC=C(C)C (stereo not drawn) [Citronellyl acetate] | 1.5 points | 0 | – | –
CCCCCC1COCCC1OC(C)=O (stereo not drawn) [Jasmal, 3-pentyl tetrahydropyranyl acetate] | 1 | −1 | – | –
CCCCCCCCCC(C)C=O (stereo not drawn) [2-Methyl undecanal] | – | 0 | – | –
2-butyl-4,6-dimethyl-dihydro-pyran [Vigorose] | 3 | 1 | – | –
CCCCCCOC(=O)c1ccccc1O [Hexyl salicylate] | 1 | −1 | – | –
CCCCCC=O [Hexanal] | 3 | 1 | – | –
CC1=CC(C)C(C=O)C(C)C1 (stereo not drawn) [Isocyclocitral, trimethyl cyclohexene carbalehyde] | 2.5 points | 1 | – | –
CC(=O)C(C)=C(C)C(C)C(C)(C)C (stereo not drawn) [Koavone, ethylene tetramethyl heptanone] | – | – | 1 | 2.5 points
COc1ccc(COC(C)=O)cc1 [Anisyl acetate] | 1.5 points | 0 | – | –

Compound | Masking [1] | Harmonizing [2] | Harmonizing | Masking
CC(C)[C@@H]1CC[C@@H](C)CC1=O [Mentone] | 3 | 1 | – | –
O=C(OCCc1ccccc1)c1ccccc1O [Phenylethyl salicylate] | 1 | −1 | – | –
CC(=CCC1CC=C(C)C1(C)C)CO (stereo not drawn) [Sandalmysore core, 2-methyl-4-(2,2,3-trimethyl-3-cyclopentene-1-yl)-2-butene-1-ol] | 2.5 points | 1 | – | –
CC(=O)O[C@]1(C)CC[C@@]23C[C@@H]1C(C)(C)[C@@H]2CC[C@H]3C [Cedryl acetate] | 0 | −1 | – | –
C/C=C/C(=O)C1C(C)C=CCC1(C)C (stereo not drawn) [δ-Damascone] | 1.5 points | 0 | – | –
CC(=O)OC(C)c1ccccc1 (stereo not drawn) [Styralyl acetate] | 3 | 1 | – | –
CC(C)=CCCC(C)=CC#N [Geranyl nitrile] | 3 | 1 | – | –
CCOC(=O)C(C)CC (stereo not drawn) [Ethyl-2-methyl butylate] | 3 | 1 | – | –
CCCOC(C)OCCc1ccccc1 (stereo not drawn) [Acetoaldehydephenylethylpropyl acetal] | 2.5 points | 1 | – | –
CC(C)=C[C@@H]1C[C@H](C)CCO1 [L-Rose oxide] | 3 | 1 | – | –
CC(C)CCCC(C)CCO (stereo not drawn) [Dimethyl octanol] | 1.5 points | 0 | – | –
Methyl naphthyl ketone | 1.5 points | −1 | – | –
CCc1ccc(CC(C)(C)C=O)cc1 [Floralozone, p-ethyl-α,α-dimethyl phenyl propyl aldehyde] | 1.5 points | 0 | – | –
CC(=O)/C(C)=C/C1C(C)=CCCC1(C)C (stereo not drawn) [γ-Methylionone] | 2 | 1 | – | –
CCC(C)CCCC(C)(C)O (stereo not drawn) [Tetrahydromyrcenol] | 2 | 0 | – | –
CC(=O)OC(c1ccccc1)C(Cl)(Cl)Cl (stereo not drawn) [Rosephenone, trichloromethyl phenyl carbinyl acetate] | 1.5 points | 0 | – | –
CCOC(=O)C1OC1(C)c1ccccc1 (stereo not drawn) [Ethyl-3-methyl-3-phenyl glycidate] | 2 | 0 | – | –
CC(=O)OC1CC2CC1C1CC=CC21 (stereo not drawn) [Tricyclodecenyl acetate] | 1.5 points | 0 | – | –
COC(=O)c1ccccc1N=CCC(C)CCCC(C)(C)O (stereo not drawn) [Aurantiol, Hydoroxycitronellylidene methyl anthranilate] | 2 | 1 | – | –
CC(=O)OC1CCC(C(C)(C)C)CC1 (stereo not drawn) [p-tert-Butylcyclohexyl acetate] | 1.5 points | −1 | – | –
CCCCCCCCC=CCC=O [Example 3-Dodecenal, 3-Dodecenal] | 0.5 points | −1 | – | –
OCCc1ccccc1 [Phenylethyl alcohol] | 2.5 points | 1 | – | –
C=CCOC(=O)CCC1CCCCC1 [Allyl cyclohexyl propionate] | 2 | 0 | – | –
CC1CC(C)(c2ccccc2)OC(C)O1 (stereo not drawn) [Floropal, 2,4,6-trimethyl-4-phenyl-1,3-dioxane] | 1 | 0 | – | –
CC(=O)OC(C)(C)C1CC=C(C)CC1 (stereo not drawn) [Terpinyl acetate] | 2 | 0 | – | –
CC(=O)CCc1ccc(O)cc1 [Raspberry ketone, 4-(4-hydroxyphenyl)-2-butanone] | 0.5 points | −1 | – | –
COC(=O)Cc1ccccc1 [Methyl phenyl acetate] | 2.5 points | 1 | – | –
